Test results as given in the NIST ThermoML archive (doi:10.1021/je7003758).

Assay: xn = mol fraction of the nth substance listed
Conditions: 298.15 K, Liquid

ClCCCCCl [1,4-dichlorobutane] + CN1CCCC1=O
mass density [kg/m3]
Conditions	x2 = 0.1039	x2 = 0.2034	x2 = 0.3036	x2 = 0.402	x2 = 0.5025	x2 = 0.5968	x2 = 0.7003	x2 = 0.8008	x2 = 0.8971
100 kPa	1123.8	1114.2	1104.3	1094.4	1084	1073.9	1062.7	1051.4	1040.2
500 kPa	1124.1	1114.6	1104.6	1094.7	1084.2	1074.2	1062.9	1051.6	1040.4
1000 kPa	1124.5	1114.9	1104.9	1095	1084.5	1074.5	1063.2	1051.9	1040.7
1500 kPa	1124.9	1115.2	1105.3	1095.3	1084.8	1074.8	1063.6	1052.2	1041
2000 kPa	1125.2	1115.6	1105.7	1095.7	1085.2	1075.1	1063.8	1052.5	1041.3
2500 kPa	1125.5	1115.9	1106	1096	1085.5	1075.4	1064.1	1052.8	1041.6
2900 kPa	–	–	1106.3	–	–	–	–	–	–
3000 kPa	1125.9	1116.3	–	1096.3	1085.8	1075.7	1064.4	1053	1041.8
3500 kPa	1126.3	1116.6	1106.6	1096.7	1086.1	1076	1064.7	1053.4	1042.1
4000 kPa	1126.7	1117	1107	1097	1086.4	1076.4	1065	1053.6	1042.3
4500 kPa	1127	1117.3	1107.4	1097.3	1086.8	1076.6	1065.3	1053.9	1042.7
4900 kPa	1127.3	–	–	–	–	1076.9	–	–	–
5000 kPa	–	1117.7	1107.7	1097.6	1087.1	–	1065.6	1054.2	1042.9
5500 kPa	1127.7	1118	1108	1098	1087.4	1077.2	1065.9	1054.4	1043.1
5900 kPa	1128.1	–	–	–	1087.7	–	–	–	–
6000 kPa	–	1118.4	1108.3	1098.3	–	1077.6	1066.2	1054.8	1043.5
6500 kPa	1128.4	1118.8	1108.7	1098.6	1088	1077.8	1066.5	1055	1043.7
7000 kPa	1128.8	1119.1	1109	1099	1088.4	1078.2	1066.8	1055.3	1044
7400 kPa	–	–	–	–	–	–	–	–	1044.2
7500 kPa	–	1119.5	1109.4	1099.3	1088.6	1078.5	1067.1	1055.6	–
7600 kPa	1129.2	–	–	–	–	–	–	–	–
7900 kPa	–	–	–	–	1089	–	–	–	–
8000 kPa	1129.5	1119.8	1109.7	1099.6	–	1078.8	1067.4	1055.9	1044.5
8400 kPa	1129.8	–	–	–	–	–	–	–	–
8500 kPa	–	1120.1	1110.1	1099.9	1089.3	1079.1	1067.6	1056.2	1044.8
8900 kPa	1130.2	–	–	–	–	–	–	–	–
9000 kPa	–	1120.5	1110.4	1100.3	1089.6	1079.4	1068	1056.4	1045.1
9400 kPa	–	–	–	–	–	–	–	–	1045.3
9500 kPa	1130.6	1120.8	1110.7	1100.3	1089.9	1079.7	1068.2	1056.7	–
10000 kPa	1131	1121.3	1111.1	1101	1090.3	1080	1068.6	1057.1	1045.6
10500 kPa	1131.4	1121.6	1111.4	1101.3	1090.6	1080.3	1068.9	1057.3	1045.9
11000 kPa	1131.7	1122	1111.8	1101.6	1090.9	1080.6	1069.2	1057.6	1046.1
11500 kPa	1132.1	1122.3	1112.1	1101.9	1091.2	1080.9	1069.4	1057.9	1046.4
11900 kPa	–	–	–	–	–	–	–	–	1046.6
12000 kPa	1132.5	1122.6	1112.4	1102.2	1091.6	1081.2	1069.7	1058.2	–
12400 kPa	–	–	–	–	–	–	–	–	1046.9
12500 kPa	1132.8	1122.9	1112.8	1102.6	1091.9	1081.5	1070	1058.4	–
12900 kPa	–	–	–	–	1092.2	–	–	–	–
13000 kPa	1133.1	1123.3	1113.1	1102.9	–	1081.8	1070.3	1058.7	1047.2
13400 kPa	–	–	–	–	–	–	–	1059	–
13500 kPa	1133.5	1123.6	1113.4	1103.2	1092.5	1082.1	1070.5	–	1047.4
13900 kPa	–	–	1113.7	–	–	–	–	–	–
14000 kPa	1133.8	1124	–	1103.5	1092.8	1082.4	1070.9	1059.2	1047.7
14400 kPa	–	–	–	–	–	–	1071.1	1059.5	–
14500 kPa	1134.2	1124.3	1114	1103.8	1093.1	1082.6	–	–	1048
14900 kPa	–	–	–	–	1093.3	–	–	–	–
15000 kPa	1134.5	1124.7	1114.4	1104.1	–	1083	1071.5	1059.7	1048.3
15400 kPa	–	–	–	–	1093.6	–	–	–	–
15500 kPa	1134.8	1125	1114.7	1104.4	–	1083.3	1071.7	1060	1048.6
15900 kPa	–	–	–	–	–	–	–	–	1048.8
16000 kPa	1135.2	1125.3	1115.1	1104.8	1094	1083.5	1072	1060.3	–
16400 kPa	–	–	–	1105	–	–	–	–	–
16500 kPa	1135.5	1125.6	1115.4	–	1094.2	1083.8	1072.2	1060.6	1049
16900 kPa	–	–	1115.6	–	–	–	–	–	–
17000 kPa	1135.9	1126	–	1105.4	1094.5	1084.1	1072.5	1060.8	1049.3
17500 kPa	1136.2	1126.3	1116	1105.7	1094.8	1084.4	1072.8	1061.1	1049.5
18000 kPa	1136.5	1126.6	1116.3	1106	1095.1	1084.7	1073.1	1061.3	1049.8
18500 kPa	1136.9	1126.9	1116.6	1106.2	1095.4	1085	1073.3	1061.6	1050.1
19000 kPa	1137.3	1127.3	1117	1106.6	1095.8	1085.3	1073.7	1061.9	1050.3
19500 kPa	1137.6	1127.6	1117.3	1106.9	1096	1085.6	1074	1062.2	1050.6
20000 kPa	1138	1128	1117.7	1107.4	1096.5	1086	1074.5	1062.4	1050.9
